The source of these data is PubChem BioAssay (NCI).

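Compound exposure: 48 hours, 5 concentrations, 96-well plates. TGI marks complete inhibition of growth.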

Common to all, as to assay: NCI tumour cell line growth inhibition, 48 h
For assay [1], the system named is LOX IMVI melanoma.
Assay [2] concerns EKVX NSCLC.
Assay [3] has as its system KM20L2 colon.
Assay [4] has as its system OVCAR-5 ovarian.
Assay [5] deals with XF 498 CNS.
Assay [6] has as its system M19-MEL melanoma.
Assay [7] has as its system UACC-257 melanoma.
Assay [8] concerns NCI-H460 lung.
Assay [9] has as its system SN12C renal.
For assay [10], the system named is COLO 205 colon.
Assay [11] has as its system NCI-H23 lung.
The subject of assay [12] is SF-295 CNS.
The subject of assay [13] is HCC-2998 colon.
Assay [14] deals with SK-MEL-2 melanoma.
Assay [15] has as its system HL-60(TB) leukemia.
In assay [16] the test system is OVCAR-8 ovarian.
In assay [17] the test system is NCI-H226 lung.
Assay [18] has as its system KM12 colon.
Assay [19] deals with SNB-78 CNS.
Assay [20] has as its system OVCAR-4 ovarian.

`Cc1cc(N=Nc2ccc(N=Nc3c(O)c(S(=O)(=O)O)cc4cc(S(=O)(=O)O)ccc34)cc2C)ccc1N=Nc1ccc2cc(S(=O)(=O)O)cc(S(=O)(=O)O)c2c1`: the TGI in assay [1], in [2], in [3], in assay [4], in [5] and in assay [6] was greater than 100 µM each time. Besides, the TGI in [7], in [8], in assay [9], in assay [10], in assay [11] and in assay [12] was greater than 100 µM throughout. The TGI in assay [13] was greater than 100 µM; in assay [14], greater than 100 µM; in assay [15], greater than 100 µM; in assay [16], greater than 31.6 µM; in assay [17], greater than 100 µM; in assay [18], greater than 100 µM. The TGI in assay [19] and in [20] was greater than 100 µM in each case.

Regarding `CC1=C2C(O)C(C(C)C(=O)NC(C)C)CCC2(C)C=CC1=O` (stereo unspecified), the TGI in assay [1], in assay [2], in assay [3], in [4], in assay [5] and in assay [7] was greater than 100 µM in each case. Moreover, the TGI in assay [8], in assay [9], in [10], in assay [11], in assay [12] and in assay [13] was greater than 100 µM throughout. Besides, the TGI in [14], in assay [15], in assay [16], in [17], in [18] and in [19] was greater than 100 µM throughout. Further, in [20], the TGI was greater than 100 µM.

Take `CC(C)(O)[C@H](CCO)O[Si](c1ccccc1)(c1ccccc1)C(C)(C)C`: the TGI in assay [1] worked out at 27.6 µM; in assay [2], 29.6 µM; in [3] it was 23.9 µM; in assay [4], 28.1 µM; in assay [5], 20.7 µM; in [6], 29.3 µM. For the same compound, the TGI in [7] came to 29.7 µM; in assay [8] it was 26.7 µM; in [9], 14 µM; in assay [10] it was 29.6 µM; in assay [12] it was 18.9 µM; in assay [13] it was 18.1 µM. The TGI is 28.4 µM in assay [14]; 20.1 µM in assay [15]; 23.8 µM in [16]; 25.5 µM in assay [18]; 29.8 µM in [19].

Turning to `COC(=O)NN1C(=O)C(=P(c2ccccc2)(c2ccccc2)c2ccccc2)C(C(=O)OC)=C1C`, the TGI in assay [1], in assay [2], in assay [3], in assay [6], in [8] and in [9] was greater than 100 µM each time. For the same compound, the TGI in [10], in [11], in assay [12], in assay [14], in assay [15] and in assay [16] was greater than 100 µM in each case. Also, the TGI in [17] and in assay [19] was greater than 100 µM throughout.

As to `Cn1c(=O)c2nc(N3CCCCC3)cnc2n(C)c1=O`, the TGI in [2], in assay [3], in assay [4], in assay [5], in assay [6] and in [7] was greater than 100 µM in each case. For the same compound, the TGI in [8], in assay [9], in assay [10], in assay [11], in assay [12] and in assay [13] was greater than 100 µM throughout. Besides, the TGI in [15], in assay [16], in assay [18] and in assay [20] was greater than 100 µM in each case.
